Data published in patent publication US6906098B2, “Mixed steroidal 1,2,4,5-tetraoxane compounds and methods of making and using thereof” (priority 2002, dated 2005).
Converted amounts (≈) assume the structure as drawn. “And” between values parts separate entries of the source, which are not always exact repeats. Identical values can stand only once. Like-named read-outs stand apart in the source and are kept apart here.

How the values were obtained:
[1] = system: UO-31 renal cancer cell line; experiment: NCI in vitro antiproliferative screen (SRB), UO-31; type: cell-based, human; conditions: UO-31, after 48 h; for GI50 / CC50: Homo sapiens; for CC50: read-out: LC50 (the source's name)
Description: (§1) In preliminary tests, four compounds (1B14a, 1C44, 1C45, and 1C46) were chosen by NIH-NCI for in vitro screening. See Drug discovery and development program, National Cancer Institute, Bethesda, (NCI), http://dtp.nci.nih.gov. All tetraoxanes were evaluated in the 3-cell line (lung—NCI-H460, breast—MCF7, CNS-SF-268) one dose primary anticancer assay: growth percentage after 48 hours, at 100 μM concentration of tested compound. Two compounds were eliminated at this step (1B14a and 1C46), while the acid 1C44 and primary amide 1C45 were evaluated against the full panel of 60 human tumor cell lines starting with 10^−4 M concentration of investigated compounds.
(§2) The activity of numerous compounds of the present invention against various cancer cell lines was submitted to the Developmental Therapeutics Program (DTP) at the National Cancer Institute (NCI) of the National Institutes of Health (NIH) for screening.
(§3) The DTP Human Tumor Cell Line Screen utilizes 60 different human tumor cell lines, representing leukemia, melanoma and cancers of the lung, colon, brain, ovary, breast, prostate, and kidney according to conventional methods known in the art. See e.g. Alley, M. C., et al. (1988) Cancer Research 48:589-601; Grever, M. R., et al. (1992) Seminars in Oncology 19(6):622-638; and Boyd, M. R., and Paull, K. D. (1995) Drug Development Research 34:91-109, which are herein incorporated by reference.
(§4) Generally, the human tumor cell lines of the cancer screening panel are grown in RPMI 1640 medium containing 5% fetal bovine serum and 2 mM L-glutamine. For a typical screening experiment, cells are inoculated into 96 well microtiter plates in 100 μl at plating densities ranging from 5,000 to 40,000 cells/well depending on the doubling time of individual cell lines. After cell inoculation, the microtiter plates are incubated at 37° C., 5% CO2, 95% air and 100% relative humidity for 24 hours prior to addition of the compounds to be tested.
(§5) After 24 hours, two plates of each cell line are fixed in situ with TCA, to represent a measurement of the cell population for each cell line at the time of drug addition (Tz). Experimental drugs are solubilized in dimethyl sulfoxide at 400-fold the desired final maximum test concentration and stored frozen prior to use. At the time of drug addition, an aliquot of frozen concentrate is thawed and diluted to twice the desired final maximum test concentration with complete medium containing 50 μg/ml gentamicin. Additional four, 10-fold or ½ log serial dilutions are made to provide a total of five drug concentrations plus control. Aliquots of 100 μl of these different drug dilutions are added to the appropriate microtiter wells already containing 100 μl of medium, resulting in the required final drug concentrations.
(§6) Following drug addition, the plates are incubated for an additional 48 hours at 37° C., 5% CO2, 95% air, and 100% relative humidity. For adherent cells, the assay is terminated by the addition of cold TCA. Cells are fixed in situ by the gentle addition of 50 μl of cold 50% (w/v) TCA (final concentration, 10% TCA) and incubated for 60 minutes at 4° C. The supernatant is discarded, and the plates are washed five times with tap water and air dried. Sulforhodamine B (SRB) solution (100 μl) at 0.4% (w/v) in 1% acetic acid is added to each well, and plates are incubated for 10 minutes at room temperature. […]

[2] = system: TK-10 renal cancer cell line; experiment: NCI in vitro antiproliferative screen (SRB), TK-10; type: cell-based, human; conditions: TK-10, after 48 h; for GI50 / CC50: Homo sapiens; for CC50: read-out: LC50 (the source's name)
Description: as §1, §2, §3, §4, §5, §6

[3] = system: D6 and W2 P. falciparum clones; type: cell-based, Plasmodium falciparum; conditions: IC50 (W2)/IC50 (D6) ratio
[4] = system: Mycobacterium tuberculosis H37Rv (ATCC 27294); experiment: Primary screen, Microplate Alamar Blue Assay (MABA), percent inhibition; type: cell-based; conditions: Mycobacterium tuberculosis, primary screening at 6.25 μg/ml
Outline: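 Single-concentration screen at 6.25 μg/ml (or molar equivalent of the heaviest congener in a series) against H37Rv grown in BACTEC 12B medium. Growth read by Microplate Alamar Blue Assay, reported as percent inhibition.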

[5] = system: IGROV1 ovarian cancer cell line; experiment: NCI in vitro antiproliferative screen (SRB), IGROV1; type: cell-based, human; conditions: IGROV1, after 48 h
Description: as §1, §2, §3, §4, §5, §6

[6] = system: MALME-3M melanoma cancer cell line; experiment: NCI in vitro antiproliferative screen (SRB), MALME-3M; type: cell-based, human; conditions: for GI50 / CC50: Homo sapiens; for CC50: read-out: LC50 (the source's name)
Description: as §1, §2, §3, §4, §5, §6

M. tuberculosis H37Rv = experiment: Minimum inhibitory concentration (MIC) in the MABA; type: cell-based, Mycobacterium tuberculosis; conditions: Mycobacterium tuberculosis, H37RV, read-out: MIC
Outline: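 Run under the NIAID TAACF screening program against M. tuberculosis by fluorescence read-out. MIC taken as the lowest concentration giving 90% reduction in fluorescence relative to controls.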

[7] = system: Plasmodium falciparum chloroquine-resistant strain W2; experiment: microbe, parasite or virus in culture; type: cell-based; conditions: growth inhibition, chloroquine-resistant strain W2, 66 h incubation
VERO cells [8] = experiment: cells; conditions: Chlorocebus sabaeus, Table 5
[9] = system: KM-12 colon cancer cell line; experiment: NCI in vitro antiproliferative screen (SRB), KM-12; type: cell-based, human; conditions: KM-12, after 48 h; for GI50 / CC50: Homo sapiens, KM12; for CC50: read-out: LC50 (the source's name)
Description: as §1, §2, §3, §4, §5, §6

SR leukemia cell line = experiment: NCI in vitro antiproliferative screen (SRB), SR; type: cell-based, human; conditions: after 48 h; for GI50 / CC50: Homo sapiens; for CC50: read-out: LC50 (the source's name)
Description: as §1, §2, §3, §4, §5, §6

[10] = system: Plasmodium falciparum chloroquine-susceptible strain D6; experiment: In vitro antimalarial drug susceptibility assay (radiolabeled hypoxanthine incorporation), strain D6; type: cell-based; conditions: growth inhibition, chloroquine-susceptible strain D6, 66 h incubation
VERO cells [11] = system: VERO cells
in vitro = conditions: African green monkey, Cytotoxcity (IC50)
[12] = Table 3, H37Rv, read-out: Inhibition (%)
[13] = Table 5, Alamar assay, read-out: % Inhib
[14] = MALME-3M, after 48 h, read-out: GI50
[15] = Table 5, Alamar assay, M. tuberculosis H37Rv
[16] = ratio of IC50 in VERO cells to MIC (M. tuberculosis H37Rv)

SMILES | GI50 [1] | CC50 [1] | TGI [1] | GI50 [2] | CC50 [2] | TGI [2] | Resistance Index [3] | inhibition at 6.25 µg/mL [4, 12] | inhibition at 6.25 µg/mL [4, 13] | GI50 ([5]; Homo sapiens, IGROV-1) | TGI [5] | GI50 [6, 14] | CC50 ([6]; MALME-3M, after 48 h) | TGI ([6]; MALME-3M, after 48 h) | MIC (M. tuberculosis H37Rv; Table 3, H37Rv) | GI50 [9] | CC50 [9] | TGI [9] | GI50 (SR leukemia cell line) | CC50 (SR leukemia cell line) | also measured
CC(=O)O[C@H]1CC2C(C3CC[C@H](C(C)CCC(=O)O)[C@]31C)[C@H](OC(C)=O)C[C@@H]1CC3(CC[C@]21C)OOC1(CCC(c2ccccc2)CC1)OO3 (single isomer, unassigned) [Compound 1C44, 7α,12α-Diacetoxy-5β-cholan-24-oic acid-3-spiro-6′-(1′,2′,4′,5′-tetraoxacyclohexane)-3′-spiro-1″-((4″R or S)-phenyl)cyclohexane] | 1.83 µM | 6.73 µM | 3.51 µM | 1.99 µM | 27 µM | 5.94 µM | 0.98 | 94% | 94% | 0.26 µM | 0.82 µM | 2.27 µM | 47 µM | 9.14 µM | 6.25 µg/mL (≈ 8.97 µM) | 1.96 µM | 40.1 µM | 5.36 µM | 1.83 µM | 100 µM | LC50 (concentration killing 50% of cells) ([5]; Homo sapiens, IGROV-1): 3.76 µM; MIC (M. tuberculosis H37Rv; [15]): 6.25 µg/mL (≈ 8.97 µM); Strain W2 IC50 [7]: 0.00609 µg/mL; IC50 (VERO cells [8]): 1.07 µg/mL (≈ 1.54 µM); TGI (SR leukemia cell line): 5.92 µM; Strain D6 IC50 [10]: 0.00619 µg/mL; SI (selectivity index) (VERO cells [11]; [16]): 0.17
CC(=O)O[C@H]1CC2C(C3CC[C@H](C(C)CCC(N)=O)[C@]31C)[C@H](OC(C)=O)C[C@@H]1CC3(CC[C@]21C)OOC1(CCC(c2ccccc2)CC1)OO3 (single isomer, unassigned) [Compound 1C45, 7α,12α-Diacetoxy-5β-cholan-24-amide-3-spiro-6′-(1′,2′,4′,5′-tetraoxacyclohexane)-3′-spiro-1″-((4″R or S)-phenyl)cyclohexane] | 0.36 µM | 4.57 µM | 1.35 µM | 2.7 µM | 8.07 µM | 4.66 µM | 1.02 | 93% | 93% | 0.295 µM | 1.11 µM | 0.02 µM | 37.3 µM | 3.99 µM | 6.25 µg/mL (≈ 8.98 µM) | 1.19 µM | 7.15 µM | 2.92 µM | 0.29 µM | 100 µM | GI50 ([6]; Malme-3M): 0.02 µM; MIC (M. tuberculosis H37Rv; [15]): 6.25 µg/mL (≈ 8.98 µM); Strain W2 IC50 [7]: 0.00736 µg/mL; Strain D6 IC50 [10]: 0.00719 µg/mL
CNC(=O)CCC(C)[C@H]1CCC2C3C(C[C@H](OC(C)=O)[C@@]21C)[C@@]1(C)CCC2(C[C@H]1C[C@H]3OC(C)=O)OOC1(CCC(C)CC1)OO2 (stereo partly drawn) [18/1C27, N-Methyl-7α,12α-diacetoxy-5β-cholan-24-amide-3-spiro-6′-(1′,2′,4′,5′-tetraoxacyclohexane)-3′-spiro-1″-((4″R)-methyl)cyclohexane] |  |  |  |  |  |  | 0.61 | 98% | 98% |  |  |  |  |  | 6.25 µg/mL and 9.65 µM |  |  |  |  |  | MIC (M. tuberculosis H37Rv; [15]): 6.25 µg/mL (≈ 9.65 µM); Strain W2 IC50 [7]: 0.00234 µg/mL; IC50 (in vitro; Table 3, VERO cell line, 72 hours exposure): 5.69 µg/mL and 8.78 µM; Strain D6 IC50 [10]: 0.00386 µg/mL; SI (selectivity index) (VERO cells [11]; [16]): 0.91
C[C@@H]1CC[C@H]2[C@@H](C)C(=O)O[C@@H]3O[C@@]4(C)CC[C@@H]1[C@]32OO4 [Artemisinin, reference compound] | 79.4 µM | 100 µM | 100 µM | 100 µM | 100 µM | 100 µM |  |  |  | 79.4 µM | 100 µM | 100 µM | 100 µM | 100 µM |  | 100 µM | 100 µM | 100 µM | 100 µM | 100 µM | TGI (SR leukemia cell line): 100 µM
CC(=O)O[C@H]1C(=O)[C@@]2(C)[C@H]([C@H](OC(=O)c3ccccc3)[C@]3(O)C[C@H](OC(=O)[C@H](O)[C@@H](NC(=O)c4ccccc4)c4ccccc4)C(C)=C1C3(C)C)[C@]1(OC(C)=O)CO[C@@H]1C[C@@H]2O [Paclitaxel, reference compound] | 1.58 µM | 100 µM | 39.8 µM | 0.25 µM | 79.4 µM | 50.1 µM |  |  |  | 0.032 µM | 79.4 µM | 2.51 µM | 79.4 µM | 50.1 µM |  | 0.0079 µM | 100 µM | 79.4 µM | 0.079 µM | 63.1 µM | TGI (SR leukemia cell line): 63.1 µM
CO[C@H]1/C=C/O[C@@]2(C)Oc3c(C)c(O)c4c(O)c(c(/C=N/N5CCN(C)CC5)c(O)c4c3C2=O)NC(=O)/C(C)=C\C=C\[C@H](C)[C@H](O)[C@@H](C)[C@@H](O)[C@@H](C)[C@H](OC(C)=O)[C@@H]1C [Rifampin, reference compound] |  |  |  |  |  |  |  |  |  |  |  |  |  |  | 0.12 µg/mL and 0.15 µM |  |  |  |  |  | IC50 (VERO cells [8]): > 100 µg/mL; IC50 (in vitro): 111 µg/mL and 134 µM; SI (selectivity index) (VERO cells [11]): > 800
